Data from patent US10000452B1, “Quinolone-based compounds, formulations, and uses thereof” (University of South Florida, priority 2016, dated 2018).
Where two headings read alike, the source gives them in different places.

Tests used:
J774 mammalian cells = assay: cytotoxicity to J774 cells; type: cell-based; conditions: Mus musculus
Method: This allowed a simplified method for comparing the different assays being simultaneously run. Additionally, each compound was also tested for cytotoxicity using mammalian J774 cell lines in a 96-well plate format.^12-14, 16

[1] = tested on: malarial strain W2 (pyrimethamine and chloroquine-resistant); assay: in vitro antimalarial activity against multidrug resistant strain W2; type: cell-based, P. falciparum; conditions: for EC50: Plasmodium falciparum, read-out: EC50 W2 (nM); for EC50 W2 (nM): blood stage in vitro, strain W2
[2] = tested on: malarial strain TM90-C2B (mefloquine, chloroquine, atovaquone, and pyrimethamine-resistant); assay: microbe, parasite or virus in culture; type: cell-based, P. falciparum; conditions: for RI: RI = EC50 TM90-C2B/EC50 W2; for EC50: Plasmodium falciparum, TM90, read-out: EC50 TM90-C2B (nM); for EC50 TM90-C2B (nM): blood stage in vitro, atovaquone-resistant strain TM90-C2B
Source text: Ideally, the RI of a compound should lie between 0.3 and 3.0 in order to avoid rapidly inducing resistance in the parasite. […]

[3] = tested on: P. berghei sporozoites expressing luciferase; assay: in vitro liver stage activity, luciferase sporozoites infecting HEPG2 hepatoma cells; type: cell-based; conditions: HEPG2 cells; for EC50: Plasmodium berghei
Pb-infected mice = assay: in vivo efficacy scouting assay against blood stages; design: species or system P. berghei; mice; conditions: Example 2: two mice, single 50 mg/kg oral dose in PEG400 on day 1 PE
Method: The screening involved a single oral 50 mg/kg dose 1 day post infection (PI) and an assessment of parasitemia on days 3 PI and 6 PI (Table 6).
The screening was performed by treating two infected mice with a single 50 mg/kg oral dose of test compound suspended in PEG400 on day 1 postexposure (PE) followed by assessing parasitemia on days 3 and 6 PE.

[4] = aqueous solubility (LC/MS- or HPLC-based assay); type: physicochemical; conditions: aqueous solution (buffer not named), aqueous buffer, Example 2, at any given pH; read-out: solubility
Source text: Furthermore, to profile the properties of the piperazinyl-4(1H)-quinolones, and to identify potential limitations, aqueous solubility and lipophilicity log D were experimentally determined via LC/MS-based assays as described by the Manetsch laboratory previously^8,10,31,32 (Tables 9-12). Encouragingly, the piperazinyl-4(1H)-quinolones were much more soluble than the previously described phenoxyethoxy-4(1H)-quinolone analogues.^19 As expected, the solubility of all compounds was affected by pH, with better solubility under more acidic conditions.
In parallel to testing the compounds for in vitro antimalarial activity, a limited structure-property relationship (SPR) study focusing on log D and aqueous solubility was conducted to assess potential physiochemical liabilities (FIG. 22). […] For these reasons, physicochemical properties were not strongly considered as selection criteria for in vivo efficacy studies.

CCN(CC)CCCC(C)Nc1ccnc2cc(Cl)ccc12 (stereo not drawn) [CQ, Chloroquine, reference compound]
EC50 (J774 mammalian cells; J774, cytotoxicity, 96 well plate format, read-out: EC50 J774): 47.2 µM

COC(=O)c1c[nH]c2cc(OCCOc3ccccc3)ccc2c1=O [Compound 6a, Methyl 4-Oxo-7-(2-phenoxyethoxy)-1,4-dihydroquinoline-3-carboxylate]
EC50 [1]: 2.8 nM | RI [2]: 26.3 | EC50 Pb (nM) [3]: subnanomolar | EC50 [3]: 0.286 nM

COC(=O)c1c[nH]c2cc(OCCOc3ccccc3)c(OC)cc2c1=O [Compound 6aa, Methyl 6-Methoxy-4-oxo-7-(2-phenoxyethoxy)-1,4-dihydroquinoline-3-carboxylate]
RI [2]: 1.60

COC(=O)c1c[nH]c2cc(OCCOc3ccccc3)c(Cl)cc2c1=O [Compound 6ab, Methyl 6-Chloro-4-oxo-7-(2-phenoxyethoxy)-1,4-dihydroquinoline-3-carboxylate]
EC50 [1]: 9.93 nM | EC50 [2]: 617 nM | EC50 [3]: 0.063 nM

COC(=O)c1c[nH]c2cc(OCCOc3ccccc3)c(C)cc2c1=O [Compound 6ac, Methyl 6-Methyl-4-oxo-7-(2-phenoxyethoxy)-1,4-dihydroquinoline-3-carboxylate]
EC50 [1]: 2.01 nM | EC50 [2]: 499 nM | EC50 [3]: 152 nM

CCCCc1cc2c(=O)c(C#N)c[nH]c2cc1OCCOc1ccccc1 [Compound 6ad, 6-Butyl-4-oxo-7-(2-phenoxyethoxy)-1,4-dihydroquinoline-3-carbonitrile]
EC50 W2 (nM) [1]: high double-digit nM range

CCCCc1cc2c(=O)c(C(=O)OCC)c[nH]c2cc1OCCOc1ccccc1 [Compound 6af, Ethyl 6-Butyl-4-oxo-7-(2-phenoxyethoxy)-1,4-dihydroquinoline-3-carboxylate]
EC50 [1]: 0.143 nM | EC50 Pb (nM) [3]: subnanomolar

CCCCc1cc2c(=O)c(C(C)=O)c[nH]c2cc1OCCOc1ccccc1 [Compound 6ag, 3-Acetyl-6-butyl-7-(2-phenoxyethoxy)quinolin-4(1H)-one]
EC50 [1]: 9.67 nM

CCCCc1ccc2[nH]cc(C(=O)OC)c(=O)c2c1 [Compound 6c, Methyl 6-Butyl-4-oxo-1,4-dihydroquinoline-3-carboxylate]
EC50 [1]: 1.58 nM | EC50 [2]: 222 nM | RI [2]: 141 | EC50 Pb (nM) [3]: subnanomolar | EC50 [3]: 0.819 nM

COC(=O)c1c[nH]c2ccccc2c1=O [Compound 6d, Methyl 4-Oxo-1,4-dihydroquinoline-3-carboxylate]
EC50 W2 (nM) [1]: retained respectable potency | EC50 TM90-C2B (nM) [2]: devoid of any activity

COC(=O)c1c[nH]c2ccc(OCc3ccccc3)cc2c1=O [Compound 6e, Methyl 6-(Benzyloxy)-4-oxo-1,4-dihydroquinoline-3-carboxylate]
EC50 [1]: 11.6 nM | EC50 [2]: 1100 nM | EC50 [3]: 127 nM

COC(=O)c1c[nH]c2ccc(OCCc3ccccc3)cc2c1=O [Compound 6f, Methyl 4-Oxo-6-phenethoxy-1,4-dihydroquinoline-3-carboxylate]
EC50 W2 (nM) [1]: double-digit nM

COC(=O)c1c[nH]c2ccc(OCCCc3ccccc3)cc2c1=O [Compound 6g, Methyl 4-Oxo-6-(3-phenylpropoxy)-1,4-dihydroquinoline-3-carboxylate]
% inhibition on day 6 PE (Pb-infected mice): lack of significant parasitemia reduction | EC50 W2 (nM) [1]: double-digit nM

COC(=O)c1c[nH]c2cc(Cl)ccc2c1=O [Compound 6l, Methyl 7-Chloro-4-oxo-1,4-dihydroquinoline-3-carboxylate]
EC50 W2 (nM) [1]: devoid of antimalarial activity

COC(=O)c1c[nH]c2cc(-c3ccccc3)ccc2c1=O [Compound 6m, Methyl 4-Oxo-7-phenyl-1,4-dihydroquinoline-3-carboxylate]
EC50 W2 (nM) [1]: devoid of antimalarial activity

COC(=O)c1c[nH]c2cc(F)ccc2c1=O [Compound 6n, Methyl 7-Fluoro-4-oxo-1,4-dihydroquinoline-3-carboxylate]
EC50 [1]: 26.2 nM | EC50 [2]: 395 nM

COC(=O)c1c[nH]c2ccc(-c3ccccc3)cc2c1=O [Compound 6u, Methyl 4-Oxo-6-phenyl-1,4-dihydroquinoline-3-carboxylate]
EC50 W2 (nM) [1]: devoid of activity

Cc1[nH]c2cc(CN3CCN(c4ccc(C(F)(F)F)cc4)CC3)ccc2c(=O)c1Br [Compound 8aq, 3-Bromo-2-methyl-7-((4-(4-(trifluoromethyl)phenyl)piperazin-1-yl)methyl)quinolin-4(1H)-one]
EC50 (J774 mammalian cells; J774, read-out: EC50 J774 (μM)): > 20 µM | EC50 [1]: 121 nM | EC50 [2]: 95.4 nM | RI [2]: 0.79

Cc1[nH]c2cc(CN3CCN(c4ccc(C(F)(F)F)cc4)CC3)ccc2c(=O)c1Cl [Compound 8ar, 3-Chloro-2-methyl-7-((4-(4-(trifluoromethyl)phenyl)piperazin-1-yl)methyl)quinolin-4(1H)-one]
EC50 (J774 mammalian cells; J774, read-out: EC50 J774 (μM)): > 20 µM | EC50 [1]: 139 nM | EC50 [2]: 1510 nM | RI [2]: 10.9

COc1cc2c(=O)c(Br)c(C)[nH]c2cc1CN1CCN(c2ccc(C(F)(F)F)cc2)CC1 [Compound 8at, 3-Bromo-6-methoxy-2-methyl-7-((4-(4-(trifluoromethyl)phenyl)piperazin-1-yl)methyl)quinolin-4(1H)-one]
EC50 (J774 mammalian cells; J774, read-out: EC50 J774 (μM)): > 20 µM | EC50 [1]: 128 nM | EC50 [2]: > 5000 nM | RI [2]: >39.1

CCCCc1cc2c(=O)c(C(=O)NC)c[nH]c2cc1OCCOc1ccccc1 [Compound 13a, 6-Butyl-N-methyl-4-oxo-7-(2-phenoxyethoxy)-1,4-dihydroquinoline-3-carboxamide]
EC50 [1]: 13.3 nM | EC50 [2]: 3980 nM

CCCCc1cc2c(=O)c(C(=O)NCCO)c[nH]c2cc1OCCOc1ccccc1 [Compound 13d, 6-Butyl-N-(2-hydroxyethyl)-4-oxo-7-(2-phenoxyethoxy)-1,4-dihydroquinoline-3-carboxamide]
solubility [4]: > 20 µM

CCCCc1cc2c(=O)c(C(=O)NC(C)C)c[nH]c2cc1OCCOc1ccccc1 [Compound 13e, 6-Butyl-N-isopropyl-4-oxo-7-(2-phenoxyethoxy)-1,4-dihydroquinoline-3-carboxamide]
EC50 W2 (nM) [1]: completely inactive

CCCCc1cc2c(=O)c(I)c[nH]c2cc1OCCOc1ccccc1 [Compound 16b, 6-Butyl-3-iodo-7-(2-phenoxyethoxy)quinolin-4(1H)-one]
EC50 [1]: 1.23 nM | EC50 [2]: 6.04 nM | RI [2]: 4.91

CCCCc1cc2c(=O)c(Br)c[nH]c2cc1OCCOc1ccccc1 [Compound 16d, 3-Bromo-6-butyl-7-(2-phenoxyethoxy)quinolin-4(1H)-one]
EC50 [1]: 4.64 nM | EC50 [2]: 48.7 nM

CCCCc1cc2c(=O)c(Cl)c(C)[nH]c2cc1OCCOc1ccccc1 [Compound 16e, 6-Butyl-3-chloro-2-methyl-7-(2-phenoxyethoxy)quinolin-4(1H)-one]
EC50 [1]: 6.92 nM | EC50 [2]: 67.7 nM | RI [2]: 9.79

C[C@H]1[C@@H](O)O[C@@H]2O[C@@]3(C)CC[C@H]4[C@H](C)CC[C@@H]1[C@@]24OO3 [DHA, dihydroartemisinin, reference compound]
EC50 (J774 mammalian cells; J774, read-out: EC50 J774 (μM)): 1.53 µM

Methyl 4-oxo-7-(4-phenylpiperazin-1-yl)-1,4-dihydroquinoline-3-carboxylate [Compound 8a]
EC50 W2 (nM) [1]: inhibition against W2 was lost | RI [2]: ~1

Methyl 6-methyl-4-oxo-7-(4-phenylpiperazin-1-yl)-1,4-dihydroquinoline-3-carboxylate [Compound 8c]
EC50 W2 (nM) [1]: retained respectable potency | EC50 TM90-C2B (nM) [2]: devoid of any activity
